Literature values in patent publication US5831002A, “Antitumor peptides” (BASF Aktiengesellschaft, priority 1995, dated 1998).

Conditions: background, literature; cited from earlier work

| Substance | cell growth inhibitory activity |
| --- | --- |
| Dolastatin-10 | potent cell growth inhibitory activity |
| Dolastatin-15 | potent cell growth inhibitory activity |
